{"source": "paper PMC4079055", "about": "(The New England journal of medicine, 2014)", "key": {"MET": {"test_system": "MET", "details": "cited from earlier work"}, "[1]": {"test_system": "ALK-rearranged NSCLC xenograft", "details": "crizotinib-sensitive and crizotinib-resistant tumors; cited from earlier work"}, "ALK-rearranged NSCLC": {"test_system": "ALK-rearranged NSCLC", "assay": "Phase 1 study: antitumor activity", "assay_type": "in vivo, human"}, "clinical": {"assay": "clinical", "details": "human, in vivo"}, "[2]": {"assay": "Phase 1 study of oral ceritinib: safety, dose-limiting toxic events, MTD", "assay_type": "in vivo"}, "ALK": {"test_system": "ALK", "details": "enzymatic assays; cited from earlier work"}, "[3]": {"details": "cited from earlier work"}, "[4]": {"details": "at least 400 mg daily, 114 patients with NSCLC"}}, "note": "Where two headings read alike, the source gives them in different places.", "data": [{"smiles": "Cc1cc(Nc2ncc(Cl)c(Nc3ccccc3S(=O)(=O)C(C)C)n2)c(OC(C)C)cc1C1CCNCC1", "note": "[Ceritinib]", "values": [{"measurement": "Inhibition of the kinase activity of MET", "setting": "MET", "result": "does not inhibit"}, {"measurement": "Antitumor activity in xenograft models", "setting": "[1]", "result": "marked antitumor activity"}, {"measurement": "Overall response rate", "setting": "ALK-rearranged NSCLC; 750 mg daily, 78 patients with NSCLC, 95% CI 47 to 70", "result": 59, "unit": "%"}, {"measurement": "Tumor regression by molecular status", "setting": "ALK-rearranged NSCLC; 19 crizotinib-resistant patients with repeat biopsy", "result": "Tumor regression was observed in all the patients"}, {"measurement": "Median progression-free survival", "setting": "ALK-rearranged NSCLC; 50 patients without central nervous system metastases, ≥400 mg daily", "result": 7.0, "unit": "months"}, {"measurement": "Patients with confirmed partial response", "setting": "ALK-rearranged NSCLC; 50 to 300 mg daily, 8 patients with NSCLC", "result": 2, "unit": "patients"}, {"measurement": "Median progression-free survival", "setting": "ALK-rearranged NSCLC; 64 patients with central nervous system metastases at baseline, ≥400 mg daily", "result": 6.9, "unit": "months"}, {"measurement": "Median duration of response", "setting": "ALK-rearranged NSCLC; 66 responders, at least 400 mg daily, 95% CI 6.9 to 11.4", "result": 8.2, "unit": "months"}, {"measurement": "Patients with duration of response of 6 months or longer", "setting": "ALK-rearranged NSCLC; 66 responders, at least 400 mg daily, 95% CI 50 to 74", "result": 64, "unit": "%"}, {"measurement": "Median progression-free survival", "setting": "ALK-rearranged NSCLC; 80 patients who had previously received crizotinib, 400 to 750 mg daily, 95% CI 5.3 to 8.8", "result": 6.9, "unit": "months"}, {"measurement": "Median progression-free survival", "setting": "ALK-rearranged NSCLC; 114 patients with NSCLC, at least 400 mg daily, 95% CI 5.6 to 9.5", "result": 7.0, "unit": "months"}, {"measurement": "Confirmed complete response", "setting": "ALK-rearranged NSCLC; [4]", "result": 1, "unit": "%"}, {"measurement": "Confirmed partial response", "setting": "ALK-rearranged NSCLC; [4]", "result": 57, "unit": "%"}, {"measurement": "Progressive disease on the first restaging scans", "setting": "ALK-rearranged NSCLC; [4]", "result": 11, "unit": "%"}, {"measurement": "Stable disease", "setting": "ALK-rearranged NSCLC; [4]", "result": 22, "unit": "%"}, {"measurement": "Overall response rate", "setting": "ALK-rearranged NSCLC; at least 400 mg daily, 114 patients with NSCLC, 95% CI 48 to 67", "result": 58, "unit": "%"}, {"measurement": "Median overall survival", "setting": "ALK-rearranged NSCLC; data immature, 72% censored", "result": "had not been reached"}, {"measurement": "Overall response rate", "setting": "ALK-rearranged NSCLC; no previous crizotinib, at least 400 mg daily, 34 patients, 95% CI 44 to 78", "result": 62, "unit": "%"}, {"measurement": "Patients with confirmed responses", "setting": "ALK-rearranged NSCLC; of 7 crizotinib-resistant patients with ALK gene amplification or mutation", "result": 6, "unit": "patients"}, {"measurement": "Patients with confirmed responses", "setting": "ALK-rearranged NSCLC; of 12 crizotinib-resistant patients without ALK alteration", "result": 7, "unit": "patients"}, {"measurement": "Reduction in tumor burden on computed tomographic scans", "setting": "ALK-rearranged NSCLC; one patient with crizotinib-resistant disease, after 6 weeks of treatment", "result": 52, "unit": "%"}, {"measurement": "Responses in untreated central nervous system lesions", "setting": "ALK-rearranged NSCLC; patients who had received crizotinib previously", "result": "responses were seen in untreated lesions in the central nervous system"}, {"measurement": "Overall response rate", "setting": "ALK-rearranged NSCLC; previously treated with crizotinib, 400 mg or more daily, 80 patients, 95% CI 45 to 67", "result": 56, "unit": "%"}, {"measurement": "Overall response rate", "setting": "ALK-rearranged NSCLC; previously treated with crizotinib, 750 mg daily, 50 patients, 95% CI 41 to 70", "result": 56, "unit": "%"}, {"measurement": "Day by which steady-state levels were achieved", "setting": "clinical", "result": "~15", "unit": "days"}, {"measurement": "Increase in Cmax in relation to dose", "setting": "clinical", "result": "slightly greater than proportional to the dose"}, {"measurement": "half-life", "setting": "clinical; 750 mg", "result": "~40", "unit": "h"}, {"measurement": "Mean (±SD) area under the plasma concentration–time curve over a 24-hour period", "setting": "clinical; po", "result": "16,500±4750 ng per milliliter per hour"}, {"measurement": "Mean Cmax", "setting": "clinical; po", "result": "800±205", "unit": "ng per milliliter"}, {"measurement": "Time at which Cmax was achieved after receipt of the dose", "setting": "clinical; po, 750 mg", "result": "approximately 6 hours"}, {"measurement": "Treatment-related deaths", "setting": "[2]; all 130 patients", "result": "No treatment-related deaths occurred"}, {"measurement": "Any event, grade 3 or 4, suspected to be related", "setting": "[2]; human, in vivo", "result": "64 (49) number of patients with event (percent)"}, {"measurement": "Diarrhea, grade 3 or 4, suspected to be related", "setting": "[2]; human, in vivo", "result": "9 (7) number of patients with event (percent)"}, {"measurement": "Dose-limiting toxic events", "setting": "[2]; human, in vivo", "result": "diarrhea (at a daily dose of ≥600 mg), vomiting (at 750 mg daily), nausea (at 750 mg daily), dehydration (at 600 mg daily), elevated alanine aminotransferase level (at 400 mg daily), and hypophosphatemia (at 400 mg daily)"}, {"measurement": "Elevated alanine aminotransferase level, grade 3 or 4, suspected to be related", "setting": "[2]; human, in vivo", "result": "27 (21) number of patients with event (percent)"}, {"measurement": "Elevated amylase level, grade 3 or 4, suspected to be related", "setting": "[2]; human, in vivo", "result": "3 (2) number of patients with event (percent)"}, {"measurement": "Elevated aspartate aminotransferase level, grade 3 or 4, suspected to be related", "setting": "[2]; human, in vivo", "result": "14 (11) number of patients with event (percent)"}, {"measurement": "Elevated blood alkaline phosphatase level, grade 3 or 4, suspected to be related", "setting": "[2]; human, in vivo", "result": "3 (2) number of patients with event (percent)"}, {"measurement": "Elevated lipase level, grade 3 or 4, suspected to be related", "setting": "[2]; human, in vivo", "result": "9 (7) number of patients with event (percent)"}, {"measurement": "Fatigue, grade 3 or 4, suspected to be related", "setting": "[2]; human, in vivo", "result": "6 (5) number of patients with event (percent)"}, {"measurement": "Hyperglycemia, grade 3 or 4, suspected to be related", "setting": "[2]; human, in vivo", "result": "3 (2) number of patients with event (percent)"}, {"measurement": "Hypophosphatemia, grade 3 or 4, suspected to be related", "setting": "[2]; human, in vivo", "result": "4 (3) number of patients with event (percent)"}, {"measurement": "Incidence of grade 3 or 4 nausea", "setting": "[2]; human, in vivo", "result": 5, "unit": "%"}, {"measurement": "Median duration of treatment interruption", "setting": "[2]; human, in vivo", "result": 7.3, "unit": "days"}, {"measurement": "Nausea, grade 3 or 4, suspected to be related", "setting": "[2]; human, in vivo", "result": "7 (5) number of patients with event (percent)"}, {"measurement": "Study drug permanently discontinued owing to an adverse event", "setting": "[2]; human, in vivo", "result": 6, "unit": "%"}, {"measurement": "Vomiting, grade 3 or 4, suspected to be related", "setting": "[2]; human, in vivo", "result": "6 (5) number of patients with event (percent)"}, {"measurement": "Cases of interstitial lung disease possibly related to therapy", "setting": "[2]; in vivo", "result": "four"}, {"measurement": "Dose-limiting toxic events", "setting": "[2]; in vivo", "result": "diarrhea, vomiting, dehydration, elevated aminotransferase levels, and hypophosphatemia"}, {"measurement": "Maximum tolerated dose (MTD)", "setting": "[2]; oral, once daily, dose-escalation phase, 59 patients", "result": 750, "unit": "mg daily"}, {"measurement": "Potency against ALK relative to crizotinib", "setting": "ALK", "result": 20, "unit": "times"}]}, {"smiles": "C[C@@H](Oc1cc(-c2cnn(C3CCNCC3)c2)cnc1N)c1c(Cl)ccc(F)c1Cl", "note": "[crizotinib]", "values": [{"measurement": "Incidence of grade 3 or 4 nausea", "setting": "[3]", "result": 1, "unit": "%"}, {"measurement": "Patients with drug-related diarrhea of grade 3 or 4", "setting": "[3]; of 321 patients", "result": 0, "unit": "patients"}]}]}
